Test results published in patent US10017734B2, “Method for producing dopaminergic neurons” (TAKEDA PHARMACEUTICAL COMPANY LIMITED, priority 2013, dated 2018).

Experiments:
Type in all cases: cell-based
[1] = system: floor plate cells induced from human iPS cell (253G1 strain, 201B7 strain); assay: Immunofluorescent staining of TH, NURR1 and FOXA2 proteins on days 45-52 of culture; conditions: PD0325901 added to ascorbic acid and dbcAMP (Example 1, (A))
Protocol: Then, the expression of midbrain dopaminergic neuron markers TH, NURR1 and FOXA2 proteins was examined by immunofluorescent staining using anti-TH antibody, anti-NURR1 antibody and anti-FOXA2 antibody. Floor plate cells were induced by a method similar to the methods described in Reference Examples 1 to 3, differentiation induction was performed by exchanging the medium with (A) Neuro/B27 added with 3 factors of ascorbic acid, dbcAMP and PD0325901, or (B) Neuro/B27 added with 2 factors of ascorbic acid and dbcAMP from day 13 of culture, 4% PFA was added on days 45-52 of culture, and the cells were fixed at room temperature for 30 min. The cells were reacted with anti-TH antibody (AB152, Nihon Millipore K.K.), anti-NURR1 antibody (PP-N1404-00, Perseus Proteomics) and anti-FOXA2 antibody (sc-6544, Santa Cruz) as the primary antibodies, and sequentially reacted with Alexa488-labeled secondary antibody, Alexa568-labeled secondary antibody and Alexa647-labeled secondary antibody, corresponding to the immunized animal of the primary antibody, as the secondary antibodies, and observed under a fluorescence microscope. […]

[2] = system: floor plate cells induced from human iPS cell (253G1 strain, 201B7 strain); assay: Study of various MEK inhibitors (including FGFR inhibitor): NURR1 expression by quantitative RT-PCR on day 45; conditions: 253G1 strain, added to ascorbic acid and dbcAMP, 3 μM PD0325901, 3 μM PD184352, 10 μM SU5402
From the text: Whether midbrain dopaminergic neuron can be induced in a medium containing any of PD184352 (Axon MedChem), SU5402 (FGF receptor (FGFR) inhibitor, Wako Pure Chemical Industries, Ltd.) and PD173074 (FGFR inhibitor, Axon MedChem) instead of PD0325901 in the aforementioned (A) Neuro/B27 was studied.
Floor plate cells were induced by a method similar to the methods described in Reference Examples 1 to 3, the medium was exchanged with Neuro/B27 added with (1) 3 factors of ascorbic acid, dbcAMP and PD0325901, (2) 2 factors of ascorbic acid and dbcAMP, (3) ascorbic acid, dbcAMP and 3 μM PD184352, (4) ascorbic acid, dbcAMP and 10 μM SU5402, or (5) ascorbic acid, dbcAMP and 0.1 μM PD173074 on day 13 of culture, and the cells were cultured at 37° C. under 5% CO2 for not less than 30 days. The medium was exchanged every 3-4 days during the above-mentioned culture periods. On day 45 of culture, the cells were recovered, and expression variation of NURR1 was examined. In 253G1 strain, the expression of NURR1 was elevated by the addition of PD0325901, PD184352 or SU5402 and, in 201B7 strain, the expression of NURR1 was elevated by the addition of all 4 kinds.

[3] = system: dopaminergic neuron induced from human iPS cell (253G1 strain, 201B7 strain); assay: Ability to release dopamine by high-KCl stimulation on day 50 of culture; conditions: HBSS with 55 mM KCl vs HBSS
Protocol: Floor plate cells were induced by a method similar to the methods described in Reference Examples 1 to 3, differentiation induction was performed by exchanging the medium with (A) Neuro/B27 added with 3 factors of ascorbic acid, dbcAMP and PD0325901, or (B) Neuro/B27 added with 2 factors of ascorbic acid and dbcAMP from day 13 of culture, and an ability to release dopamine by stimulation with high-KCl was evaluated on day 50 of culture.
The above-mentioned evaluation was performed as follows. The medium of the cells after differentiation induction was exchanged with Neuro/B27, and the cells were cultured overnight. […] For the analysis, a trace biological sample analysis system and HTEC500 (Eicom Corporation), electrochemical detector EPC-500 (Eicom Corporation) were used, and the amount of dopamine contained in the sample was measured according to the manual of Eicom Corporation (Eicom information No. 25). […] However, when differentiation was induced using the aforementioned (A) Neuro/B27, an increase in the amount of dopamine released by stimulation with high-KCl could be detected with good reproducibility even in a different lot.

[4] = system: floor plate cells induced from human iPS cell (253G1 strain, 201B7 strain); assay: NURR1 expression by quantitative RT-PCR on day 45 after differentiation of floor plate cells; conditions: 3 μM PD0325901 added in addition to ascorbic acid and dbcAMP
Protocol: Floor plate cells were induced by a method similar to the methods described in Reference Examples 1 to 3, the medium was exchanged with (A) Neuro/B27 added with 3 factors of 0.1 mM ascorbic acid (SIGMA), 0.5 mM dibutyryl-cAMP (SIGMA, hereinafter to be indicated as dbcAMP) and 3 μM PD0325901, or (B) Neuro/B27 added with 2 factors of 0.1 mM ascorbic acid and 0.5 mM dbcAMP on day 13 of culture, and the cells were cultured at 37° C. under 5% CO2 for not less than 30 days. The medium was exchanged every 3-4 days during the above-mentioned culture periods. On day 45 of culture, the cells were recovered, and expression variation of NURR1 known as a transcription factor extremely important for the differentiation, maturation and maintenance of functions of midbrain dopaminergic neuron was examined.

[5] = system: floor plate cells induced from human iPS cell (253G1 strain, 201B7 strain); assay: TH and NURR1 expression by quantitative RT-PCR on day 26 of culture; conditions: dbcAMP and activin A
Protocol: Floor plate cells were induced by a method similar to the methods described in Reference Examples 1 to 3, the medium was exchanged with Neuro/B27 added with one or more kinds of 0.1 mM ascorbic acid, 0.5 mM dbcAMP, 3 μM PD0325901, and 20 ng/ml activin A (R&D), or Neuro/B27 without addition of ascorbic acid, dbcAMP, PD0325901, and activin A as a control on day 12 of culture, and the cells were cultured for 14 days more (total 26 days). The cells after culture were recovered, and the expression variation of TH and NURR1 was examined by a method similar to Reference Example 3. […] On the other hand, when ascorbic acid, dbcAMP and PD0325901 were added, the expression level was lower at the time point of day 26 of culture than the addition of ascorbic acid, dbcAMP and activin A.

[6] = system: cryopreserved day 26 cells induced from human iPS cell (253G1 strain, 201B7 strain); assay: Dopaminergic neuron marker expression by quantitative RT-PCR 2 weeks after thawing of cells cryopreserved on day 26; conditions: Y27632 10 μM
Protocol: Midbrain floor plate cells were induced by a method similar to the methods described in Reference Examples 1 to 3, the medium was exchanged with Neuro/B27 added with 0.1 mM ascorbic acid, 0.5 mM dbcAMP, 3 μM PD0325901, and 20 ng/ml activin A (R&D) on day 12 of culture, and the cells were cultured for 14 days more (total 26 days). After culture, the cells were washed with PBS, and dispersed by treating with Accutase (Innovative Cell Technologies) at 37° C. for 20-30 min. After centrifugal washing, the cells were suspended in cell banker 2 (Juji Field Inc.) at a concentration of about 2×10^6 cells/ml/tube, and cryopreserved at −80° C. The cryopreserved cells were thawed by immersion in a thermostatic tank at 37° C. and, after centrifugal washing, seeded in a 96 well plate at a density of 2×10^4 cells per well, and cultured at 37° C. under 5% CO2 for 2 weeks. As the above-mentioned 96 well plate, one coated at 37° C. overnight with Matrigel 1/30-1/40 diluted with DMEM/F12 (Life Technologies Corporation) or Laminin (Trevigen Inc.) diluted with DMEM/F12 at a concentration of 10 μg/ml was used. As the culture medium, Neuro/B27 added with one or more kinds of 0.1 mM ascorbic acid, 0.5 mM dbcAMP, 3 μM PD0325901, and 20 ng/ml activin A, or Neuro/B27 without addition of ascorbic acid, dbcAMP, PD0325901, and activin A as a control was used. […]

[7] = system: human iPS cell (253G1 strain, 201B7 strain); assay: Time-course expression of differentiation markers by quantitative RT-PCR in the three-step differentiation system; conditions: conditions excluding only purmorphamine (-Pur)
Protocol: In step 1, the cells were cultured in Neuro/B27 added with 0.5 μM LDN193189, 10 μM SB431542, 0.5 μM purmorphamine, 200 ng/ml SHH and 1 μM CHIR99021 for 5 days. In step 2, the cells were cultured in Neuro/B27 added with 0.5 μM LDN193189 and 1 μM CHIR99021 for 8 days (total 13 days). In step 3, the cells were cultured in Neuro/B27 added with 0.1 mM ascorbic acid, 0.5 mM dbcAMP and 3 μM PD0325901 for 32 days (total 45 days). After culture, time-course expression variation of various differentiation markers was measured by a method similar to Reference Example 3.
As a control, the cells were cultured under conditions without addition of a differentiation inducing factor (− in Figure), conditions excluding only SHH (−SHH in Figure) or conditions excluding only purmorphamine (−Pur in Figure). Also, the group subjected to differentiation induction under the conditions shown in FIG. 9 from step 2 onward was studied.

SMILES: O=C(NOC[C@H](O)CO)c1ccc(F)c(F)c1Nc1ccc(I)cc1F [PD0325901, N-[(2R)-2,3-dihydroxypropoxy]-3,4-difluoro-2-[(2-fluoro-4-iodophenyl)amino]-benzamide]
- staining with NURR1 protein [1]: strongly-positive
- expression of NURR1 [2]: elevated
- increase in the amount of dopamine released by stimulation with high-KCl [3]: stably detected
- expression of NURR1 [4]: further elevated highly
- expression of TH and NURR1 ([5]; 3 μM PD0325901 added together with ascorbic acid): further elevated highly
- expression level of TH and NURR1 ([5]; ascorbic acid, dbcAMP and PD0325901 compared with ascorbic acid): lower

SMILES: C[C@@H](N)[C@H]1CC[C@H](C(=O)Nc2ccncc2)CC1 [Y27632, (R)-(+)-trans-4-(1-aminoethyl)-N-(4-pyridyl)cyclohexanecarboxamide]
- expression levels of the markers, presence or absence of Y27632 [6]: scarcely different

SMILES: c1ccc2c(Oc3nc(Nc4ccc(N5CCOCC5)cc4)c4ncn(C5CCCCC5)c4n3)cccc2c1 [purmorphamine, N-(4-morpholinophenyl)-2-(1-naphthyloxy)-9-cyclohexyl-9H-purin-6-amine]
- expression of FOXA2 [7]: low
